Drawing on BindingDB's records for doi:10.1016/j.bmcl.2009.03.150 (Gsk, 2009), this text covers IC50 for 4 compounds.

Common to all, as to experiment: Enzyme Inhibition Assay
One assay concerns the target Beta-secretase 1 (Homo sapiens, UniProt P56817). The note with it: pH 4.5; 22 °C.
The target of another assay is Cathepsin D (Homo sapiens, UniProt P07339).
The next assay deals with T1, Beta-secretase 2 (Homo sapiens, UniProt Q9Y5Z0).
T1 sequence (Q9Y5Z0 whole entry): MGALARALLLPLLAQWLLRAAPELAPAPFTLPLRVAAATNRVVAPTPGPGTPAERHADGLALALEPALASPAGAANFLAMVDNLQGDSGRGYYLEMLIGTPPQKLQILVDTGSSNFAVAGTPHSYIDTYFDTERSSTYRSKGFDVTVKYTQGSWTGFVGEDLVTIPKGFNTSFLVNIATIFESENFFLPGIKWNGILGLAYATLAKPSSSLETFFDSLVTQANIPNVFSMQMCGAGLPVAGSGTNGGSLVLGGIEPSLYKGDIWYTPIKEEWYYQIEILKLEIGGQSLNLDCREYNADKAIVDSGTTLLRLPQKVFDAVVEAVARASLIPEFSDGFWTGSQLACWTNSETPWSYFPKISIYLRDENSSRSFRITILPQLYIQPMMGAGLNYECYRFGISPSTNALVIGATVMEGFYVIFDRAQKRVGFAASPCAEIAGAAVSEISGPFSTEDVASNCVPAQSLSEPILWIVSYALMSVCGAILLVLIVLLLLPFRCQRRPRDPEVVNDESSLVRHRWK

Beta-secretase 1, sequence (P56817 whole entry): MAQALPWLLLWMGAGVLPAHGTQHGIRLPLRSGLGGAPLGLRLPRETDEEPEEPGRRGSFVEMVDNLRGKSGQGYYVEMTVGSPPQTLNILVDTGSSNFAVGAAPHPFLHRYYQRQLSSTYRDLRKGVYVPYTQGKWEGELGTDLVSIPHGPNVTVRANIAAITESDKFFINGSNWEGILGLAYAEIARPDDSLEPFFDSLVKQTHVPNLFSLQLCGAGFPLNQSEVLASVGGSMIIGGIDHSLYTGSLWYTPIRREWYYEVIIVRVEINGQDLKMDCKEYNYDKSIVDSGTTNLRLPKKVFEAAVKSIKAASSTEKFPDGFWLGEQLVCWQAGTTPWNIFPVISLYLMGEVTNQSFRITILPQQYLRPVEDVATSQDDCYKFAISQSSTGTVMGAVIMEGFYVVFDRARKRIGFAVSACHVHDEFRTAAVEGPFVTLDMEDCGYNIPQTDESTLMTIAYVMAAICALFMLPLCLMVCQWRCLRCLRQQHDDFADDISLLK
Cathepsin D, sequence (P07339 65-162 limits assumed): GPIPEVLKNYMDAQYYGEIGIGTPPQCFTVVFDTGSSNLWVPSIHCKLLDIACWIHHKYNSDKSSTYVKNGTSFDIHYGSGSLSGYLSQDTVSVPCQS
Cathepsin D, sequence (P07339 169-412 limits assumed): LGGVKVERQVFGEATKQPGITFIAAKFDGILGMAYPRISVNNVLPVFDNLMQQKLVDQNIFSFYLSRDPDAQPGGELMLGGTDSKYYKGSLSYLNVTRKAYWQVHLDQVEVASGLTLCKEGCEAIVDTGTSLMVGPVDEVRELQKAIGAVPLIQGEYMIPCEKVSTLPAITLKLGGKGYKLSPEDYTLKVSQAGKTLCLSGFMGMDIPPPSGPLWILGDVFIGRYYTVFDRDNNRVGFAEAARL

`CCN1CCN2CCS(=O)(=O)N(C)C3C=C(C(=O)N[C@@H](Cc4ccccc4)[C@H](O)CNCc4cccc(C(F)(F)F)c4)C=C1C32` (some centres not stated) [7,6,6 tricyclic sulfonamide, 10]: the results for the IC50 on Beta-secretase 1, on Cathepsin D and at Beta-secretase 2 were 26 nM, 2240 nM and 3800 nM, respectively.
The corresponding values for `CCN1CCN2CCS(=O)(=O)N(C)C3C=C(C(=O)N[C@@H](Cc4ccccc4)[C@H](O)CNC4CC4)C=C1C32` (some centres not stated) [7,6,6 tricyclic sulfonamide, 19] are 550 nM, 26300 nM and 16200 nM.
The corresponding values for `CCc1cn2c3c(cc(C(=O)N[C@@H](Cc4ccccc4)[C@H](O)CNCc4cccc(OC)c4)cc13)N(C)S(=O)(=O)CCC2` [8,6,5 tricyclic sulfonamide, 32] are 28 nM, 1570 nM and 1860 nM.
For `CCc1cn2c3c(cc(C(=O)N[C@@H](Cc4ccccc4)[C@H](O)CNC4CC4)cc13)N(C)S(=O)(=O)CCC2` [8,6,5 tricyclic sulfonamide, 33], in that order: 490 nM, 2900 nM and 5460 nM.
